# PMC11129499, “The hepatoprotective effect of 4-phenyltetrahydroquinolines on carbon tetrachloride induced hepatotoxicity in rats through autophagy inhibition” (Biological Research, 2024)
# Tests used:
# [1] = tested on: alpha-smooth muscle actin (α-SMA) positive HSCs/myofibroblasts; experiment: CCl4 model, α-SMA immunohistochemistry of liver sections; format: in vivo, Wistar albino male rats; details: CCl4 + compound 25 mg/kg p.o. daily, 14 days; vs hepatotoxicity group
# Experimental: (§1) Rats were divided into eleven groups, with seven rats in each group. Group I, the control group, received corn oil (1 ml/kg body weight, i.p.) every 72 h for 14 days. Group II, the hepatotoxicity group, received CCl4 (1 ml/kg body weight, a 1:1 v/v mixture of CCl4 and corn oil, i.p.) every 72 h for 14 days. Groups III–VI, the treated groups, received compounds (1a, 1b, 2a, and 2b), respectively, (25 mg/kg body weight, suspended in 0.5% CMC, p.o.) every 24 h, as well as CCl4 (1 ml/kg body weight, a 1:1 v/v mixture of CCl4 and corn oil, i.p.) every 72 h for 14 days. Group VII, the positive control group, received silymarin (100 mg/kg, suspended in 0.5% CMC, p.o.) every 24 h, as well as CCl4 (1 ml/kg body weight, a 1:1 v/v mixture of CCl4 and corn oil, i.p.) every 72 h for 14 days. Groups VIII–XI, the safety profile groups, received only compounds (1a, 1b, 2a, and 2b), respectively, (25 mg/kg, suspended in 0.5% CMC, p.o.) every 24 h for 14 days.
# From paraffin-embedded blocks of liver tissues, 4- to 5-μm-thick sections were cut using a semi-automated microtome. […] They were stained by alpha-smooth muscle actin (α-SMA) primary antibody (Clone 1A4, ready-to-use, mouse monoclonal antibody, Dako) using the autostainer DAKO link 48. […] Using Image J software, activated HSCs/myofibroblasts were counted in the five high power fields. […] Only cells with well-visible nuclei were counted.
# liver tissues = experiment: In-vivo toxicity study (compounds only), liver histopathology (H&E, Masson trichrome); set-up: key to fibrosis score in liver sections (safety profile): F0 = no fibrosis; F1 = mild/moderate; F2 = significant; F3 = advanced fibrosis; F4 = cirrhosis; details: compound only, 25 mg/kg p.o. 14 days; for lobular inflammation in liver sections (safety profile): H&E, noted less frequently in Cpd 2b; for fibrosis score in liver sections (safety profile): Masson trichrome, METAVIR
# Experimental: as §1
# (§2) Rats were euthanized 24 h after the last dose of treatment with an inhaled overdose of isoflurane. Blood was extracted through a cardiac puncture, left for coagulation, and the serum was obtained by centrifugation for 10 min at 5000 rpm (GBF501, Centrifuge Cencom-II, Selecta). Livers were collected, then dissected into portions. One portion was fixed overnight in 10% buffered formalin (Adwic—El Nasr Pharmaceutical Co., Egypt) for histological examination. Another portion was homogenized, centrifuged at 10,000 rpm for 10 min, and the supernatants were collected for further investigation. Total protein content of all homogenates were determined using the Pierce™ BCA Protein Assay Kit (Catalog number: 23227, Thermo-Fisher Scientific Co., USA) following the manufacturer’s instructions. Liver tissues and homogenates were stored at − 80 °C until used.
# (§3) Serial sectioning was done on the formalin-fixed liver tissues, which were then processed into paraffin blocks. Multiple serial, 5-μm-thick sections were cut and mounted on glass slides. One section was stained by H&E stain to assess the activity, while the other was stained by Masson trichrome stain to assess fibrosis. Both activity and fibrosis were assessed using a light microscope (Olympus, CX 22LED) using the METAVIR scoring system. For activity, the number of inflammatory foci (lobular necrosis) and degree of portal inflammation (piece meal necrosis) were evaluated, and then a final histological activity score was given (A0 = none, A1 = mild, A2 = moderate, and A3 = sever). Meanwhile, fibrosis assessment was done on Masson trichrome stained sections. The fibrosis scored according to a 4-tiered system (F0 = no fibrosis, F1 = mild/moderate, F2 = significant, F3 = advanced fibrosis, and F4 = cirrhosis). Other pathologic features, such as the presence or absence of steatosis and/or apoptotic hepatocytes, were assessed if present.
# LC3B = experiment: CCl4 model, LC3B ELISA in liver homogenates; format: in vivo, Wistar albino male rats; details: CCl4 + compound 25 mg/kg (silymarin 100 mg/kg) p.o. daily, 14 days
# Experimental: (§4) Rats were divided into eleven groups, with seven rats in each group. Group I, the control group, received corn oil (1 ml/kg body weight, i.p.) every 72 h for 14 days. Group II, the hepatotoxicity group, received CCl4 (1 ml/kg body weight, a 1:1 v/v mixture of CCl4 and corn oil, i.p.) every 72 h for 14 days. Groups III–VI, the treated groups, received compounds (1a, 1b, 2a, and 2b), respectively, (25 mg/kg body weight, suspended in 0.5% CMC, p.o.) every 24 h, as well as CCl4 (1 ml/kg body weight, a 1:1 v/v mixture of CCl4 and corn oil, i.p.) every 72 h for 14 days. […]
# (§5) Rats were euthanized 24 h after the last dose of treatment with an inhaled overdose of isoflurane. […] Total protein content of all homogenates were determined using the Pierce™ BCA Protein Assay Kit (Catalog number: 23227, Thermo-Fisher Scientific Co., USA) following the manufacturer’s instructions. […]
# (§6) The pro-inflammatory and pro-fibrotic cytokines tumor necrosis factor alpha (TNF-α) and transforming growth factor beta (TGF-β) were evaluated in liver tissues using ELISA kits (Catalog Numbers: CSB-E11987r and CSB-E04727r, CUSABIO, USA). For further investigation of the potential mechanism of action of the synthesized compounds, the levels of autophagy-related proteins, Beclin-1 (Catalog Number: CSB-EL002658RA, CUSABIO, USA) and LC3B (Catalog No. LS-F19802, Lifespan Biosciences, USA), were quantified in liver homogenates. […]
# [2] = tested on: tumor necrosis factor alpha (TNF-α); experiment: CCl4 model, TNF-α ELISA in liver tissues; format: in vivo, Wistar albino male rats; details: CCl4 + compound 25 mg/kg p.o. daily, 14 days; vs hepatotoxicity group unless stated
# Experimental: as §4, §5, §6
# [3] = tested on: CCl4-induced hepatotoxicity; experiment: CCl4-induced hepatotoxicity model, liver histopathology (METAVIR scoring); format: in vivo, Wistar albino male rats; set-up: key to activity grade (METAVIR): A0 = none; A1 = mild; A2 = moderate; A3 = sever; key to fibrosis score (METAVIR): F0 = no fibrosis; F1 = mild/moderate; F2 = significant; F3 = advanced fibrosis; F4 = cirrhosis; details: 14 days
# Experimental: as §1, §2, §3
# [4] = tested on: CCl4-induced hepatotoxicity; experiment: CCl4-induced hepatotoxicity model, serum liver function tests; format: in vivo, Wistar albino male rats; details: CCl4 1 ml/kg i.p. every 72 h + compound 25 mg/kg p.o. daily, 14 days; vs hepatotoxicity group unless stated
# Experimental: as §1, §2
# A variety of colorimetric serum diagnostic kits were used to assess the toxicity and hepatoprotective potential of the newly synthesized derivatives. Lipid profile parameters, including total cholesterol (TC) and triglycerides (TG), as well as kidney function tests, urea, and creatinine were measured to evaluate the toxicity profile. Liver function tests, including alanine transaminase (ALT), aspartate transaminase (AST), alkaline phosphatase (ALP), and total bilirubin (TBIL) were used for the assessment of both hepatotoxicity and hepatoprotective potential. All diagnostic kits were purchased from Biodiagnostics, Egypt, and were used and stored according to the manufacturer’s instructions.
# [5] = tested on: Human hepatoma (HepG2) cells; experiment: MTT in-vitro cytotoxicity assay on HepG2 cells; format: cell-based; details: HepG2, 24 h treatment, 7.8125-500 μM
# Experimental: Human hepatoma (HepG2) cells were used to evaluate the in-vitro cytotoxicity of the newly synthesized compounds compared to tacrine as their structure-inspiring drug. The HepG2 cell line was obtained from ATCC. The cells were cultured in DMEM with high glucose, supplemented with 10% FBS, 100 U/ml penicillin, and 1% streptomycin were maintained in a 37 °C incubator with 5% CO2 in a humidified atmosphere. One day before the treatment, cells were seeded at a density of 1 × 10^4 cells/well in a sterile flat bottom 96-well tissue culture plate. After leaving the cells to adhere for 24 h, cells were treated with different concentrations (7.8125, 15.625, 31.25, 62.5, 125, 250, and 500 μM) of each compound as well as tacrine for 24 h in the 5% CO2 incubator.
# Thereafter, cell viability was assessed using a 3-(4,5-dimethyl-2-thiazolyl)-2,5-diphenyl-tetrazolium bromide (MTT) assay obtained from Biobasic inc (Canada). Following the 24-h treatment period, MTT was added to the wells at a final concentration of 0.5 mg/mL, and the cells were incubated for 4 h in the dark. Subsequently, the media were carefully removed from the wells, and the formed formazan crystals were dissolved by adding 100 μL of DMSO. Absorbance readings were taken using a microplate reader (BioTek, USA), and the percentage cell viability was calculated for each condition relative to the control cells treated with the same DMSO concentration.
# [6] = tested on: transforming growth factor beta (TGF-β); experiment: CCl4 model, TGF-β ELISA in liver tissues; format: in vivo, Wistar albino male rats; details: CCl4 + compound 25 mg/kg p.o. daily, 14 days; vs hepatotoxicity group unless stated
# Experimental: as §4, §5, §6
# Beclin-1 = experiment: CCl4 model, Beclin-1 ELISA in liver homogenates; format: in vivo, Wistar albino male rats; details: CCl4 + compound 25 mg/kg (silymarin 100 mg/kg) p.o. daily, 14 days
# Experimental: as §4, §5, §6
# [7] = tested on: CCl4-induced oxidative stress; experiment: CCl4 model, oxidative stress markers (MDA, GSH) in liver homogenates; format: in vivo, Wistar albino male rats; details: CCl4 + compound 25 mg/kg p.o. daily, 14 days; vs hepatotoxicity group unless stated
# Experimental: as §1, with “Groups VIII–XI, the safety profile groups, received only compounds (1a, 1b, 2a, and 2b), respectively, (25 mg/kg, suspended in 0.5% CMC, p.o.) every 24 h for 14 days.” left out
# as §5
# The level of reduced glutathione (GSH) was measured in liver tissue homogenates using a colorimetric kit for GSH (Cat.No.E-BC-K030-M, Elabscience, USA). Malondialdehyde (MDA) levels were determined as thiobarbituric acid reactive substances (TBARS) in liver homogenates according to the method of Draper and Hadley.
# [8] = In-vivo toxicity study (compounds only), serum liver, lipid and kidney tests; details: compound only, 25 mg/kg p.o. every 24 h for 14 days
# Experimental: as §4, §5
# A variety of colorimetric serum diagnostic kits were used to assess the toxicity and hepatoprotective potential of the newly synthesized derivatives. Lipid profile parameters, including total cholesterol (TC) and triglycerides (TG), as well as kidney function tests, urea, and creatinine were measured to evaluate the toxicity profile. […]
# [9] = CCl4 + compound 25 mg/kg (silymarin 100 mg/kg) p.o. daily
# [10] = CCl4 + compound 25 mg/kg p.o. daily
Compound,number of α-SMA positive cells / 5 HPFs [1],lobular inflammation in liver sections (safety profile) (liver tissues),fibrosis score in liver sections (safety profile) (liver tissues),expression of LC3B protein (LC3B),TNF-α level in liver tissues [2],"improvement of liver fibrosis / architecture, in words [3, 9]",serum ALT [4],serum AST [4],IC50 [5],TGF-β level in liver tissues [6],expression of Beclin-1 protein (Beclin-1),MDA levels in liver homogenates [7],"fibrosis score (METAVIR) ([3]; CCl4 + compound 25 mg/kg (silymarin 100 mg/kg) p.o. daily, hepatotoxicity group F4)","steatosis and apoptotic cells in liver sections [3, 10]","activity grade (METAVIR) ([3]; CCl4 + compound 25 mg/kg p.o. daily, hepatotoxicity group A3)",total cholesterol (safety profile) [8],triglyceride levels (safety profile) [8],"lobular and portal inflammation (activity), in words [3, 10]"
"N#Cc1c(N)nc2c(c1-c1ccc(O)cc1)CCCC2 [Cpd 2b, 2-Amino-5,6,7,8-tetrahydro-4-(4-hydroxyphenyl)quinoline-3-carbonitrile]","better levels of significance, closely aligning with silymarin","mild, insignificant lobular inflammation (activity grade 1)",F0,greater impact on inhibiting autophagy compared to the other compounds tested,better effect on decreasing the level of both cytokines relative to compounds 1a and 1b and silymarin,better improvement in fibrosis score,as beneficial as silymarin,as beneficial as silymarin,169 µM,better effect on decreasing the level of both cytokines relative to compounds 1a and 1b and silymarin,greater impact on inhibiting autophagy compared to the other compounds tested,"highly superior to compounds 1a, 1b and silymarin",,,,,,
"CN(C)c1ccc(-c2c3c([nH]c(=O)c2C#N)CCCC3)cc1 [Cpd 1a, 4-(4-(dimethylamino)phenyl)-1,2,5,6,7,8-hexahydro-2-oxoquinoline-3-carbonitrile]",,,F0,,,,,,181 µM,,,,F3,Macrovesicular steatosis and apoptotic cells were still detected,A2,significantly lowering,significantly lowering,
"Nc1c2c(nc3ccccc13)CCCC2 [tacrine, Tacrine, reference compound]",,,,,,,,,124 µM,,,,,,,,,
"N#Cc1c(-c2ccc(O)cc2)c2c([nH]c1=O)CCCC2 [Cpd 1b, 1,2,5,6,7,8-hexahydro-4-(4-hydroxyphenyl)-2-oxoquinoline-3-carbonitrile]",,"mild, insignificant lobular inflammation (activity grade 1)",F0,,,better improvement in fibrosis score,,,174 µM,,,,,,,,,
"CN(C)c1ccc(-c2c(C#N)c(N)nc3c2CCCC3)cc1 [Cpd 2a, 2-Amino-4-(4-(dimethylamino)phenyl)-5,6,7,8-tetrahydroquinoline-3-carbonitrile]","better levels of significance, closely aligning with silymarin",,F0,greater impact on inhibiting autophagy compared to the other compounds tested,better effect on decreasing the level of both cytokines relative to compounds 1a and 1b and silymarin,best protective effect on the liver sections,as beneficial as silymarin,as beneficial as silymarin,171 µM,better effect on decreasing the level of both cytokines relative to compounds 1a and 1b and silymarin,greater impact on inhibiting autophagy compared to the other compounds tested,"highly superior to compounds 1a, 1b and silymarin",,No steatosis or apoptotic cells were detected,,,,improved markedly
